Results: US20030079241A1, “Premalignant, serially-transplantable breast tissue lines and uses thereof” (priority 2001, published 2003)

System: HPO line A
Test: Effect of tamoxifen on tumor development in mice with bilateral implants of HPO line A
Format: in vivo
Conditions: mice receiving bilateral implants of HPO line A; after 15 weeks; all control vehicle mice developed bilateral tumors
Experimental: The instant invention also provides a method of using the above described premalignant serially-transplantable, hyperplastic outgrowth (HPO) breast tissue lines to screen for new chemopreventative agents against breast cancer. The serially-transplantable breast tissue lines are implanted into the inguinal mammary fat pads of syngeneic, non-transgenic recipient mice. Putative chemopreventative agents are administered to a subset of the implanted mice.
Breast tissue lines A, B, C, D, and E from zone 4 all express high levels of estrogen receptor, which is also expressed in human premalignant breast cells. This is important for testing chemopreventive agents that rely on this receptor. Moreover, the effects of tamoxifen on the development of tumors in mice receiving bilateral implants of HPO line A were examined.

## CC/C(=C(\c1ccccc1)c1ccc(OCCN(C)C)cc1)c1ccccc1 [tamoxifen]
  development of tumors: None of the mice receiving tamoxifen developed tumors after 15 weeks
